Active and inactive are the calls of the source. The calls are words filed in the database; no cut-off is given here.
Assays:
[1] = Inhibition of alpha glucosidase (unknown origin) using alpha PNPG as substrate at 0.5 mg/mL preincubated for 15 mins followed by substrate addition measured after 15 mins relative to control; settings: Homo sapiens
[2] = Inhibition of alpha glucosidase (unknown origin) using alpha PNPG as substrate at 0.25 mg/mL preincubated for 15 mins followed by substrate addition measured after 15 mins relative to control; settings: Homo sapiens
[3] = Inhibition of alpha glucosidase (unknown origin) using alpha PNPG as substrate at 0.125 mg/mL preincubated for 15 mins followed by substrate addition measured after 15 mins relative to control; settings: Homo sapiens
[4] = Inhibition of alpha glucosidase (unknown origin) using alpha PNPG as substrate at 0.0625 mg/mL preincubated for 15 mins followed by substrate addition measured after 15 mins relative to control; settings: Homo sapiens
[5] = Inhibition of alpha glucosidase (unknown origin) using alpha PNPG as substrate preincubated for 15 mins followed by substrate addition measured after 15 mins; set-up: species or system Homo sapiens; settings: for inhibition: Homo sapiens
[6] = species: Homo sapiens; assay: Potency index, ratio of acarbose IC50 to compound IC50 for alpha glucosidase (unknown origin)
[7] = species: Homo sapiens; assay: Reversible inhibition of alpha glucosidase (unknown origin) using alpha PNPG as substrate at 0.01 mg/mL
[8] = species: Homo sapiens; assay: Non-competitive inhibition of alpha glucosidase (unknown origin) using varying levels of alpha PNPG substrate at 0.01 mg/mL by Lineweaver-Burk plot analysis
[9] = species: Homo sapiens; assay: Inhibition of alpha glucosidase (unknown origin) using alpha PNPG as substrate at 0.03125 mg/mL preincubated for 15 mins followed by substrate addition measured after 15 mins relative to control
[10] = species: Homo sapiens; assay: Inhibition of alpha glucosidase (unknown origin) using alpha PNPG as substrate at 0.01563 mg/mL preincubated for 15 mins followed by substrate addition measured after 15 mins relative to control
[11] = species: Homo sapiens; assay: Inhibition of alpha glucosidase (unknown origin) using alpha PNPG as substrate at 0.00781 mg/mL preincubated for 15 mins followed by substrate addition measured after 15 mins relative to control
[12] = species: Homo sapiens; assay: Inhibition of alpha glucosidase (unknown origin) using alpha PNPG as substrate at 0.00391 mg/mL preincubated for 15 mins followed by substrate addition measured after 15 mins relative to control
[13] = species: Homo sapiens; assay: Inhibition of alpha glucosidase (unknown origin) using alpha PNPG as substrate at 10 mg/mL preincubated for 15 mins followed by substrate addition measured after 15 mins relative to control
[14] = species: Homo sapiens; assay: Inhibition of alpha glucosidase (unknown origin) using alpha PNPG as substrate at 1.25 mg/mL preincubated for 15 mins followed by substrate addition measured after 15 mins relative to control
[15] = species: Homo sapiens; assay: Inhibition of alpha glucosidase (unknown origin) using alpha PNPG as substrate at 5 mg/mL preincubated for 15 mins followed by substrate addition measured after 15 mins relative to control
[16] = species: Homo sapiens; assay: Inhibition of alpha glucosidase (unknown origin) using alpha PNPG as substrate at 2.5 mg/mL preincubated for 15 mins followed by substrate addition measured after 15 mins relative to control
[17] = species: Homo sapiens; assay: Inhibition of alpha glucosidase (unknown origin) using alpha PNPG as substrate at 0.00195 mg/mL preincubated for 15 mins followed by substrate addition measured after 15 mins relative to control
[18] = species: Homo sapiens; assay: Inhibition of alpha glucosidase (unknown origin) using alpha PNPG as substrate at 9.77 10^-4mg/ml preincubated for 15 mins followed by substrate addition measured after 15 mins relative to control
[19] = species: Homo sapiens; assay: Inhibition of alpha glucosidase (unknown origin) using alpha PNPG as substrate at 4.88 10^-4mg/ml preincubated for 15 mins followed by substrate addition measured after 15 mins relative to control
[20] = Solubility of the compound; format: physicochemical
[21] = species: Homo sapiens; assay: Irreversible inhibition of alpha glucosidase (unknown origin) using alpha PNPG as substrate at 0.005 mg/mL

| SMILES | inhibition [1] [%] | inhibition [2] [%] | inhibition [3] [%] | inhibition [4] [%] | IC50 [5] [µM] | inhibition [5] | also measured |
| --- | --- | --- | --- | --- | --- | --- | --- |
| O=c1c(-c2ccc(O)cc2)coc2c([C@@H]3O[C@H](CO)[C@@H](O)[C@H](O)[C@H]3O)c(O)ccc12 [PUERARIN] | 78.3 | 41.5 | 21.9 | 5.26 | 524 | Dose-dependent effect | – |
| O=c1c(-c2ccc(O)cc2)coc2cc(O[C@@H]3O[C@H](CO)[C@@H](O)[C@H](O)[C@H]3O)ccc12 [DAIDZIN] | 84.8 | 77.3 | 66.8 | 41.2 | 178 to 254 | Dose-dependent effect | – |
| O=c1c(-c2ccc(O)cc2)coc2cc(O)ccc12 [DAIDZEIN] | – | – | – | – | 23 | Dose-dependent effect | Ratio IC50 [6]: 87; inhibition [7]: Active; inhibition [8]: Active; inhibition [9]: 72.8%; inhibition [10]: 59%; inhibition [11]: 57.1%; inhibition [12]: 34.3% |
| C[C@H]1O[C@H](O[C@H]2[C@H](O)[C@@H](O)[C@@H](O[C@H]3[C@H](O)[C@@H](O)C(O)O[C@@H]3CO)O[C@@H]2CO)[C@H](O)[C@@H](O)[C@@H]1N[C@H]1C=C(CO)[C@@H](O)[C@H](O)[C@H]1O (stereo partly drawn) [ACARBOSE] | – | – | – | – | 2000 | Dose-dependent effect | inhibition [13]: 82.2%; inhibition [14]: 42.2%; inhibition [15]: 58.4%; inhibition [16]: 51.1%; inhibition [12]: 89.5%; inhibition [17]: 85.6%; inhibition [18]: 79.7%; inhibition [19]: 17.7% |
| CC1(C)C=Cc2cc3c(cc2O1)O[C@@H]1c2ccc(O)cc2OC[C@@]31O | 86 | 60.1 | 49.9 | 42.5 | 182 to 379 | Dose-dependent effect | – |
| COc1ccc(-c2coc3cc(O[C@@H]4O[C@H](CO)[C@@H](O)[C@H](O)[C@H]4O)ccc3c2=O)cc1 [ONONIN] | 74.9 | 56.3 | 31.6 | 29.4 | 423 | Dose-dependent effect | – |
| COc1ccc2c(=O)cc(C(O)Cc3ccc(O)cc3)oc2c1 (stereo not drawn) | – | – | – | – | – | – | solubility [20]: Insoluble |
| CC(C)=CCC/C(C)=C/Cc1cc2c3c(oc2cc1O)C(O)(O)c1ccc(O)cc1O3 | – | – | – | – | 1.79 | Dose-dependent effect | Ratio IC50 [6]: 1120; inhibition [21]: Active |

Source: ChEMBL document CHEMBL4014296, “Constituents with potent α-glucosidase inhibitory activity from Pueraria lobata (Willd.) ohwi” (Bioorg Med Chem Lett, 2017)
